Results on one molecule are retold here after US12516293B2, “Reagents and methods with Wnt agonists and bioactive lipids for generating and expanding cardiomyocytes” (The Board of Trustees of the Leland Stanford Junior …, priority 2018, dated 2026).

In experiment [1] the test system is hiPSC-CMs. In words: ki67/pHH3 proliferation and binucleation of hiPSC-CMs (immunofluorescence). It counts as cell-based, human. As to the method: Immunohistochemistry was performed with the incubation of primary antibodies overnight followed by 2 hours of incubation with various Alexa fluorescence conjugated secondary antibodies. Images were made with confocal (Zeiss LSM 710) or regular immunofluorescence microscopy (Leica DM IL LED). Primaries used in this study were cardiac troponin T (MS-295, Fisher), Ki67 (ab15580, Abcam), pHH3 (#9701, Cell Signaling), aurora B (ab2254, Abcam), alpha sarcomeric actinin ([…], Sigma-Aldrich), MLC2V (ab48003, Abcam), phospo AKT […] (#9275, Cell Signaling). […] To examine this, the percentage was determined of troponin T (TnT) positive hiPSC-CMs that express the cell cycle marker ki67 or the mitosis marker phospho-histone H3 (pHH3) at each passage after treatment with CHIR or DMSO (CTR) (FIG. 2A-C). […] The short-term (24 hrs) changes were assessed in proliferation rate of day 12 hiPSC-CMs (P0) after treatment with CHIR-, CTR-, or C59, a specific inhibitor of Wnt signaling (FIG. 2I-J).

The test system of experiment [2] is hiPSC-CMs. In words: Cell cycle activity in well-differentiated hiPSC-CMs (ki67, pHH3, cell count). It counts as cell-based, human. The protocol: To address this, well-differentiated hiPSC-CMs were generated (e.g. day 30 or later) using chemically-defined protocols (Burridge et al. 2014; Churko et al. 2013; Sharma et al. 2015) (Movie S1) and treated them with S1P/LPA or CHIR or both (FIG. 18A). The presence of S1P/LPA receptors in these cells was first validated (FIG. 21). Immunofluorescence staining was then performed for ki67, a marker of cell cycle activity, and phospho Histone H3 (pHH3), a mitosis marker, in cardiac troponin T (TnT) positive cells.

Turning to `Cc1c[nH]c(-c2cnc(NCCNc3ccc(C#N)cn3)nc2-c2ccc(Cl)cc2Cl)n1` [CHIR99021], the “extension of window of proliferation (ki67, pHH3)” value in the experiment with hiPSC-CMs [1] (CHIR vs CTR at each passage) is listed as “up to 5 passages”. Moreover, in the experiment on hiPSC-CMs [1] (compared with CTR or C59 treated cells), the binucleation entry is reported as “less binucleation”. Moreover, the “ki67 expression / proliferation rate” value with hiPSC-CMs [1] (day 12 hiPSC-CMs (P0), 24 hrs treatment) is “significant difference in ki67 expression”. In addition, the “number of hiPSC-CMs” value with hiPSC-CMs [2] (treatment alone, 48 hours) was “increase in cell number”. Also, the “number of bi- or multinucleated cardiomyocytes” value in the experiment on hiPSC-CMs [2] (two-day treatment) was “did not increase the number of bi- or multinucleated cardiomyocytes”.
